Reference: US7875604B2, “Compounds that inhibit HIV particle formation” (University of Virginia Patent Foundation, priority 2004, dated 2011)
Like-named read-outs stand apart in the source and are kept apart here.

Assays:
fresh human PBMCs = assay: MTS staining for PBMC viability to measure cytotoxicity; format: cell-based
Description: (§1) For the standard PBMC assay, PHA-P stimulated cells from at least two normal donors were pooled (mixed together), diluted in fresh medium to a final concentration of 1×10^6 cells/mL, and plated in the interior wells of a 96 well round bottom microplate at 50 μL/well (5×10^4 cells/well) in a standard format developed by the Infectious Disease Research department of Southern Research Institute. Pooling (mixing) of mononuclear cells from more than one donor is used to minimize the variability observed between individual donors, which results from quantitative and qualitative differences in HIV infection and overall response to the PHA and IL-2 of primary lymphocyte populations. Each plate contains virus/cell control wells (cells plus virus), experimental wells (drug plus cells plus virus) and compound control wells (drug plus media without cells, necessary for MTS monitoring of cytotoxicity). Since HIV-1 is not cytopathic to PBMCs, this allows the use of the same assay plate for both antiviral activity and cytotoxicity measurements. Test drug dilutions were prepared at a 2× concentration in microtiter tubes and 100 μL of each concentration was placed in appropriate wells using the standard format. 50 μL of a predetermined dilution of virus stock was placed in each test well (final MOI≅0.1). The PBMC cultures were maintained for seven days following infection at 37° C., 5% CO2. After this period, cell-free supernatant samples were collected for analysis of reverse transcriptase activity as a measure of virus release. Following removal of supernatant samples, compound cytotoxicity was measured by addition of MTS to the plates for determination of cell viability. Wells were also examined microscopically and any abnormalities were noted.
(§2) At assay termination, assay plates were stained with the soluble tetrazolium-based dye MTS (CellTiter 96 Reagent, Promega) to determine cell viability and quantify compound toxicity. The mitochondrial enzymes of metabolically active cells metabolize MTS to yield a soluble formazan product. This allows the rapid quantitative analysis of cell viability and compound cytotoxicity. […] At termination of the assay, 20 μL of MTS reagent was added per well. The microtiter plates were then incubated 4-6 hrs at 37° C. The incubation intervals were chosen based on empirically determined times for optimal dye reduction. Adhesive plate sealers were used in place of the lids, the sealed plate was inverted several times to mix the soluble formazan product and the plate was read spectrophotometrically at 490/650 nm with a Molecular Devices Vmax or SpectraMaxPlus plate reader.
(§3) Compounds were tested in the PBMC assay using the maximum high-test concentration possible based on the supplied stocks which are listed in table 3. Compounds were prepared at a 2× high-test concentration by combining drug stock with tissue culture media at a ratio of 5 μL of drug to 995 μL of media. This 2× high-test sample was subsequently serially diluted in tissue culture media using 1/2 log dilutions. This series of 2× concentrated drug was subsequently diluted 1:1 by combining with an equal volume of cells in media in the 96-well plates used for the assay.

[1] = test system: HIV particle formation in 5BD.1 cells; assay: Six point dose response assay of HIV particle release (p24 ELISA) in 5BD.1 cells; format: cell-based, HIV-1; details: for TI (TC50/IC50): TC50 MT4 cells / IC50 5BD.1 cells; for IC50: six point dose response, p24 in 5BD.1 cells, Table 1
From the text: The present invention is directed to a safe quantitative in vitro high-throughput assay to screen library compounds for effects on Rev-dependent p24 production. Two cell lines derived from COS cells provide the means of determining whether a library compound has anti-Rev activity-5BD.1 and 2A.22. These cell lines constitutively express HIV-like particles that contain the HIV core proteins as well as HIV envelope protein. The non-infectious virions created by these cells are secreted into the media, where a simple p24 ELISA can quantitatively determine virion production. Production of these virus-like particles is totally dependent on the expression of the Rev protein (for the 5BD.1 cell line), which is also made in these cell lines, or independent of Rev protein expression (the 2A.22 cell line).
The cell line 5BD.1 was created by transfecting COS cells with the wild type HIV-1 structural and regulatory genes gag, gagpol, rev, and env. Each of these genes is necessary but not sufficient for producing infectious HIV virions. Non-infectious virions are produced in 5BD.1 cells via the same pathways as in CD4^+ cells. Inhibition of Rev with a library compound would therefore have the same effect on viral production in 5BD.1 cells as in CD4^+ cells.
Each of the 192 compounds was then subjected to 3 and 6 point dose response assays in 5BD.1 cells and toxicity testing in the MT-4 T cell line. The dose response assay was performed as follows
• 1. 5BD.1 cells were carried in 2 T175 flasks in medium (IMDM/10% FCS/0.2 mg/ml HygromycinB/1.5 mg/ml G418/0.05 mg/ml gentamycin). Cells were trypsinized and harvested from a 90% confluent flask. • 2. 20,000 cells per well were plated into rows A-G of 8 tissue culture treated clear 96-well plates in 135 μl per well of medium without G418 (assay medium). 135 μl of medium only was added to row H. • 3. The plates were placed into the incubator for one hour. • 4. Compounds were serially diluted 1:3 two times from 1 mM DMSO stocks in DMSO in 96 well polypropylene plates. 8 μl of the DMSO solutions were transferred to another plate and 72 μl of assay medium was added. • 5. 15 μl of each diluted compound was transferred to the cell plates in duplicate with the high (10 μM final concentration in rows A-B, 3 μM concentration in rows C-D, 1 μM concentration in rows E-F and DMSO only in rows G-H). • 6. The plates were then incubated overnight for 16 hours. • 7. In the morning of the next day the medium was removed by hand from all wells. • 8. 135 μl of fresh assay medium was added to each well followed by 15 μl of diluted compounds as described in step 5. • 9. The plates were then incubated for 24 hours and the medium was harvested. p24 ELISA Assay: • 10. Dilute primary antibody to 4 μg/ml in DPBS without calcium and magnesium, add 50 μl per well of a 96 well Maxisorp plate, incubate overnight at 4° C. • 11. Aspirate coating solution, block for 30-60 minutes with 200 μl ELISA buffer (4 mg/ml BSA, 0.01% Tween20 in DPBS without calcium and magnesium). • 12. Wash plates 2×. • 13. Add 50 μl of the supernatants from step 9 above. • 14. Add 15 μl of a 1:750 dilution of biotinylated secondary antibody in 40% lysis buffer/ELISA buffer. • 15. Incubate 2 hours at room temperature with shaking. • 16. Wash plates 3×. • 17. Add 50 μL/well of a 1:10,000 dilution of detection SA-HRP. Incubate at room temperature with shaking for 30 minutes. • 18. Wash plates 3×. Add 50 μL/well of TMB substrate solution to all wells and develop for approximately 15 minutes until blue. • 19. Stop the reaction with 50 μL/well 0.18M sulfuric acid. • 20. Read plate at 450 nm. Toxicity Assays:
(§4) The six point dose assay in 5BD.1 cells was used to calculate an IC50 for the compounds and data from the MT-4 toxicity assay allowed a TC50 to be calculated.

MT4 cells = assay: MTS-based toxicity assay in MT-4 T cell line; details: Table 1, read-out: TC50 (the source's name)
Description: The dose response assay was performed as follows
MTS-based toxicity assays were performed in parallel to the 3 and 6 point dose response assays.
as §4

[2] = MTS staining for PBMC viability to measure cytotoxicity; format: cell-based, human; details: human
Description: as §1, §2, §3

[3] = PBMC plates with HIV-1 BR/93/021, MTS, read-out: TC50
[4] = PBMC plates with HIV-1 NL4-3, MTS, read-out: TC50

For “2-chloro-N-(4-methylphenyl)-4-(trifluoromethyl)-1,3-thazole-5-carboxamide [Compound 91161]”, the CC50 (fresh human PBMCs; PBMC plates with HIV-1 BR/93/021, MTS, read-out: TC50 (the source's name)) was 23.3 µM, the CC50 (fresh human PBMCs; PBMC plates with HIV-1 NL4-3, MTS, read-out: TC50 (the source's name)) was 13.5 µM and the “TI (TC50/IC50)” value [1] was 9.47. The IC50 [1] was 1900 nM and the CC50 (MT4 cells) was 18 µM.

CCc1c(C(=O)Nc2ccccc2)c(C)nc2sc(C(N)=O)c(N)c12 [Compound 75168, 3-amino-4-ethyl-6-methyl-N˜5˜-phenylthieno[2,3-b]pyridine-2,5-dicarboxamide] showed a CC50 at 7 days [2, 3] greater than 26.8 µM, a CC50 at 7 days [2, 4] greater than 26.8 µM and an IC50 ([1]; Human immunodeficiency virus 1) of 3000 nM. For the same molecule, the “TI (TC50/IC50)” value [1] was greater than 33.3 and the CC50 (MT4 cells) was greater than 100 µM.

In the case of COc1ccc2cc3c(N)n[nH]c3nc2c1 [Compound 89246, 7-methoxy-1H-pyrazolo[3,4-b]quinolin-3-ylamine], the CC50 at 7 days [2, 3] is reported as 32.7 µM, the CC50 at 7 days [2, 4] is reported as 21.9 µM and the IC50 ([1]; Human immunodeficiency virus 1) is reported as 900 nM. The “TI (TC50/IC50)” value [1] was 22.22 and the CC50 (MT4 cells) was 20 µM.

Work on CCc1c(C)nc2sc(C(N)=O)c(N)c2c1C [Compound 103833, 3-amino-5-ethyl-4,6-dimethylthieno[2,3-b]pyridine-2-carboxamide] yielded a CC50 at 7 days ([2]; TC50) greater than 37.6 µM, a CC50 (fresh human PBMCs; human, 7 days) greater than 37.6 µM and an IC50 ([1]; Human immunodeficiency virus 1) of 900 nM. For the same molecule, the “TI (TC50/IC50)” value [1] was 35.6 and the CC50 (MT4 cells) was 32 µM.

Molecule COc1ccc2nc(C(F)(F)F)c(C#N)c(N)c2c1 [Compound 104366, 4-amino-6-methoxy-2-(trifluoromethyl)-3-quinolinecarbonitrile] has a CC50 at 7 days [2, 3] of 24.9 µM, a CC50 at 7 days [2, 4] of 22 µM and an IC50 ([1]; Human immunodeficiency virus 1) of 2500 nM. For the same molecule, the “TI (TC50/IC50)” value [1] was 11.2 and the CC50 (MT4 cells) was 28 µM.

CS(=O)(=O)c1ncc(-c2ccc(Br)cc2)cn1 [Compound 107129, -(4-bromophenyl)-2-(methylsulfonyl)pyrimidine] gave a CC50 at 7 days [2, 3] of 6.26 µM, a CC50 at 7 days [2, 4] of 4.13 µM and an IC50 ([1]; Human immunodeficiency virus 1) of 250 nM. The “TI (TC50/IC50)” value [1] was 40.0 and the CC50 (MT4 cells) was 10 µM.

COc1cccc(NC(=O)c2cc(Cl)nnc2Cl)c1 [Compound 107740, 3,6-dichloro-N-(3-methoxyphenyl)-4-pyridazinecarboxamide] showed a CC50 at 7 days [2, 3] of 18.8 µM, a CC50 at 7 days [2, 4] of 14.4 µM and an IC50 ([1]; Human immunodeficiency virus 1) of 4900 nM. The “TI (TC50/IC50)” value [1] was 10.2 and the CC50 (MT4 cells) was 50 µM.

Molecule Fc1ccc(Nc2ncnc3ccccc23)cc1Cl [Compound 109020, N-(3-chloro-4-fluorophenyl)-N-(4-quinazolinyl)amine] has a CC50 at 7 days ([2]; TC50) greater than 40.8 µM, a CC50 (fresh human PBMCs; human, 7 days) greater than 40.8 µM and an IC50 ([1]; Human immunodeficiency virus 1) of 3000 nM. For the same molecule, the “TI (TC50/IC50)” value [1] was 33.3.
